Measurements taken from US20240099298A1, “BIOINSECTICIDAL COMPOSITIONS CONTAINING MONOTERPENES AND METHODS OF USE THEREOF” (priority 2017, published 2024).
≈ marks a conversion by molar mass, not a printed value. Where “and” joins values, the source holds several entries; their conditions need not be identical. Equal values may be shown once. Read-outs that look alike come from different tables or passages of the source.

What was measured:
housefly adults = conditions: cited from earlier work
honeybee Apis mellifera = test: 24-hour fumigation assay on honeybee; conditions: for Mortality ± STD: 60 bees; for toxicity to honeybee (in words): 24-hour fumigation
From the text: Experiments were done with 20 bees per group in triplicate.
Activity of Monoterpenes Against Honeybees. The honeybee (Apis mellifera) is the most frequent floral visitor of crops worldwide.

[1] = test system: Thrips Megalurothrips usitatus; conditions: 24-hour fumigation assay, 0-0.192 μL/dm^3
[2] = test system: Megalurothrips usitatus (flower Thrips); conditions: adult M. usitatus, 24 hours of fumigation in 1-L flasks
[3] = test system: Drosophila melanogaster (fruit fly); test: Median lethal concentration fumigation test, fruit fly; format: in vivo; conditions: mortality after 280 minutes
Aedes aegypti (mosquito) = test: Median knockdown concentration (KC50) test, mosquito; format: in vivo
From the text: (§1) All treatments and controls were in triplicate.
(§2) Knockdown Activity of Monoterpenes.

[4] = test system: B. cucuribitae (melon fly); test: Median lethal time (LT50) test, melon fly; format: in vivo, Bactrocera cucuribitae
From the text: as §1
(§3) Toxicity of Monoterpenes as Fumigants. […] Therefore, to determine how fast the monoterpenes act as fumigants, it was necessary to determine their LT50 values for the target organisms.

[5] = T 25 °C; cited from earlier work
[6] = test system: T. chilonis (parasitic wasp); conditions: non-target parasitic wasp, mortality after 15 minutes of exposure
From the text: (§4) Insect Egg Parasitic Wasp (Natural Enemy). […] Both species were purchased from a commercial source. One- to two-day-old adults (after eclosion) were used for fumigation tests.
(§5) Median Lethal Concentration Tests. […] The species tested included Thrips (M. usitatus), spider mite (T. cinnabarinus), melon fly (B. cucuribitae), cockroach (B. lateralis), housefly (M. domestica), mosquito (A. aegypti), parasitic wasp (T. chilonis) and fruit fly (Drosophila melanogaster). After being exposed to the test chemicals for one hour, adult Thrips, spider mites, and roaches were transferred to another flask. In addition to fresh water, adult Thrips, spider mites, and roaches were then respectively fed with cowpea, fresh blade of eggplant, and peanut oil via filter. […] Mortality of melon fly was observed after three hours of exposure.

[7] = test system: A. japonicus (parasitic wasp); test: Median lethal time (LT50) test, parasitic wasp (natural enemy)
Procedure: as §4
Median Lethal Time (LT50) and Median Knockdown Concentration (KC50) Tests. Five species of adult insects or natural enemies were tested for LT50 values including melon fly (B. cucuribitae), red flour beetle (T. castaneum), Nitidulidae beetle (H. picinus), parasitic wasp (A. japonicus) and housefly (M. domestica). For each treatment and control, 20 insects at the developmental stages described above were placed individually without food in a 1-L wide-mouth glass bottle (height 19.5 cm, bottom diameter 10.5 cm, mouth i.d. 5.5 cm) containing pieces of tissue paper. […] Five different concentrations of the test chemicals were placed on pieces of cellulose-based qualitative filter paper. Each of the filter papers was placed in a bottle to have 5 appropriate concentrations in serial dilutions. DDVP was the positive control, and no chemical treatments were the negative control. All treatments and controls were in triplicate. Mortality was observed periodically in a 10-30 minute interval for 2 days or until all insects died. The death was defined as no movement when the insects were touched.

[8] = biological target: recombinant gamma-aminobutyric acid receptor-associated protein (rGABARAP) (Frankliniella occidentalis, UniProt A0A6J1T1Q2); test: Microscale thermophoresis (MST) binding to rGABARAP; conditions: rGABARAP; read-out: Kd value, MST
Sequence of recombinant gamma-aminobutyric acid receptor-associated protein (rGABARAP) (A0A6J1T1Q2 1-118): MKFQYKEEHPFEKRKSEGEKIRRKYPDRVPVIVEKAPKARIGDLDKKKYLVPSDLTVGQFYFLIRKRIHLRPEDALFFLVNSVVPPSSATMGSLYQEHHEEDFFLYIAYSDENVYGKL
From the text: Preparation of recombinant GABARAP (rGABARAP) protein. RNA was extracted from F. occidentalis and cDNA was then synthesized. GABARAP (GenBank accession No. LOC113211372) was obtained after PCR amplification (Stafford-Banks, et al. (2014) Plos One 9:e94447).
Interaction between ME and rGABARAP. A Nano Temper Monolith NT.115 MST system (Nano Temper, Munich, Germany) was used to assess the binding affinities between the target compounds and rGABARAP according to the published procedures (Zan, et al. (2020) Journal of Agricultural and Food Chemistry 68:6280-6285). Spinosyn A was used as a chemical positive control. Spinosyn A (≥1 nM) can trigger a change of the Cl^− current of insect neuron GABAAR, which is considered to be an insecticidal action mechanism of spinosyn A (Watson (2001) Pesticide Biochemistry and Physiology 71:20-28). Ovalbumin (OVA) (Sangon Biotech, Shanghai, China) is a control protein consisting of 385 amino acid residues. The interaction between OVA and ME was used as a protein control experiment (Huntington, et al. (1995) Protein Science 4:613-621).

[9] = test system: Musca domestica (housefly); test: Median knockdown concentration (KC50) test, housefly; format: in vivo; conditions: Musca domestica
From the text: as §1, §2

[10] = test system: T. castaneum (red flour beetle); test: Median lethal time (LT50) test, red flour beetle; format: in vivo, Tribolium castaneum
From the text: as §1, §3

[11] = test system: Blatta lateralis (Walker) (cockroach)
From the text: as §5

[12] = test system: Tetranychus cinnabarinus (Boisduval) (spider mites)
From the text: as §5

[13] = test system: Aedes aegypti (Linnaeus) (mosquito)
From the text: as §5

[14] = test system: Musca domestica (Linnaeus) (housefly)
From the text: as §5

[15] = test system: Bactrocera cucuribitae (Coquillett) (melon fly)
From the text: as §5

[16] = test system: Megalurothrips usitatus (Bagrall) (thrips); test: Median lethal concentration fumigation test, thrips
From the text: as §5

[17] = test system: H. picinus (Nitidulid beetle); test: Median lethal time (LT50) test, Nitidulid beetle; format: in vivo, Haptoncus picinus
From the text: as §1, §3

[18] = adult thrips, exposed one hour, mortality observed in 24 hours

CC1CCC(C(C)C)C(O)C1 (stereo not drawn) [menthol]
repellent activity (housefly adults): 96%

CC(C)=C1CC[C@@H](C)CC1=O [(+)-Pulegone]
Mortality ± STD (honeybee Apis mellifera; 0.012 μL/dm^3, 24-hour fumigation): 5.0 ± 8.7% | Mortality ± STD (honeybee Apis mellifera; 0.024 μL/dm^3, 24-hour fumigation): 3.3 ± 5.8% | Mortality ± STD (honeybee Apis mellifera; 0.048 μL/dm^3, 24-hour fumigation): 5.0 ± 5.0% | Mortality ± STD (honeybee Apis mellifera; 0.096 μL/dm^3, 24-hour fumigation): 5.0 ± 5.0% | Mortality ± STD (honeybee Apis mellifera; 0.192 μL/dm^3, 24-hour fumigation): 8.3 ± 7.6% | mortality relative to no chemical control (honeybee Apis mellifera; 0.2 μL/dm^3, 24-hour fumigation): 3% | toxicity to honeybee (in words) (honeybee Apis mellifera): little lethal toxicity | toxicity to honeybee (in words) (honeybee Apis mellifera; listed as (+)-pulegone): failed to have a negative impact | LC50 [1]: 0.079 μL/dm^3 | activity against flower Thrips in preliminary screening [2]: exhibit insecticidal activity | LC50 (fiducial limits) [3]: 0.043 ng/mL (≈ 0.000282 µM) | LC90 (fiducial limits) [3]: 0.00014 µg/mL (≈ 0.00092 µM) | KC50 (fiducial limits) (Aedes aegypti (mosquito); 10 Minutes): 19.6(8.41-35.5) μg/cm^3 | KC50 (fiducial limits) (Aedes aegypti (mosquito); 20 Minutes): 1.40 µg/mL | KC50 (fiducial limits) (Aedes aegypti (mosquito); 30 Minutes): 1.4 µg/mL | LT50 (fiducial limits) [4]: 0.87 h | fold faster action relative to the other five monoterpenes (LT50) [4]: at least 1.9 fold | Vp (Pa)/T (° C.) [5]: 16.3/25 Pa | LC50 (fiducial limits) against T. chilonis [6]: 2.02 µg/mL and 2.06 µg/mL | LC90 (fiducial limits) against T. chilonis [6]: 12.1 µg/mL (≈ 79.5 µM) | LT50 fold greater than that of DDVP ([7]; A. japonicus): approximately 1.2 fold | LT50 (fiducial limits) against A. japonicus ([7]; non-target parasitic wasp): 0.47 (0.00-0.68) hour | Kd [8]: 1.72 µM | KC50 (fiducial limits) ([9]; 20 Minutes): >243 µg/mL | KC50 (fiducial limits) ([9]; 30 Minutes): 12.2 µg/mL | LT50 (fiducial limits) [10]: 3.47 h | LC90 (fiducial limits) ([11]; cockroach second instar nymphs, exposed one hour): 173 µg/mL (≈ 1140 µM) | LC50 (fiducial limits) ([11]; in vivo): 15.0 µg/mL (≈ 98.5 µM) | LC50 (fiducial limits) ([12]; in vivo): 2.52 µg/mL (≈ 16.6 µM) | LC90 (fiducial limits) ([12]; spider mites, exposed one hour): 40.8 µg/mL (≈ 268 µM) | LC90 (fiducial limits) ([13]; adult mosquito, exposed 30 minutes, mortality in 24 hours): 16.8 µg/mL (≈ 110 µM) | LC50 (fiducial limits) ([13]; in vivo): 10.3 µg/mL (≈ 67.7 µM) | LC90 (fiducial limits) ([14]; adult housefly, exposed one hour, mortality in 24 hours): 11.9 µg/mL (≈ 78.2 µM) | LC50 (fiducial limits) ([14]; in vivo): 7.38 µg/mL (≈ 48.5 µM) | LC50 (fiducial limits) ([15]; in vivo): 112 µg/mL (≈ 736 µM) | LC90 (fiducial limits) ([15]; melon fly): 657 µg/mL (≈ 4320 µM) | LC50 (fiducial limits) [16, 18]: 0.20 µg/mL (≈ 1.31 µM) | LC90 (fiducial limits) [16, 18]: 0.67 µg/mL (≈ 4.4 µM) | LC50 (fiducial limits) ([16]; adult thrips, exposed one hour, mortality observed in 24 hours, listed as (+)-pulegone): 0.196 µg/mL (≈ 1.29 µM) | activity fold greater (smaller LC50) than positive control DDVP ([16]; thrips): 3.5 fold | LT50 (fiducial limits) [17]: 0.50 h | fold faster action relative to the other five monoterpenes (LT50) [17]: ≥ 1.2 fold | LT50 (fiducial limits) ([17]; listed as (+)-pulegone): 0.500 h

CC(C)[C@@H]1CC[C@@H](C)CC1=O [menthone]
repellent activity (housefly adults): 83%
